# B1: BMP4: bone morphogenetic protein, BMP pathway activator (protein, UniProt P12644 293-408, looked up)
# Bone morphogenetic protein 4: SPKHHSQRARKKNKNCRRHSLYVDFSDVGWNDWIVAPPGYQAFYCHGDCPFPLADHLNSTNHAIVQTLVNSVNSSIPKACCVPTELSAISMLYLDEYDKVVLKNYQEMVVEGCGCR
# Key:
# Assay type in all cases: cell-based, human
# Day 10 CD34+CD43- cells [1] = experiment: iNK differentiation of WNT modulated HE
# Description: Specific to NK cells, upon sorting, the HE cells were cultured on low attachment tissue culture plates in iNK-A2 serum-free differentiation media containing SCF, TPO, Flt3L, IL3, IL15, and IL7 (FIG. 3). After 5 days, the cells were transferred to adherent cultures containing DLL4-expressing stromal cells in iNK-B2 differentiation media containing SCF, IL3, IL15, Flt3L and IL7 to complete NK cell differentiation. After approximately 10-15 days of culturing (post HE isolation) the cell culture was assessed for the generation of NK cell progenitors followed by mature NK subsets following an additional 10-15 days of culturing. CD56 and CD161 (NKR-P1A) are the first cell surface markers to be expressed during early NK cell development followed by the expression of CD16, KIR, CD8 and NKG2D (CD314) on later mature NK cell subsets. FIG. 11 depicts the in vitro differentiation capability of the Day 10 HE population to give rise to early NK cell progenitors and mature NK cell subsets by analysis of a CD45+ population generated in the co-cultures.
# (§1) To determine the potency of the WNT modulated HE, the pan-hematopoietic and lymphoid potential of the untreated, IWP2- and CHIR99021-treated HE was each assessed. Day 10 CD34+CD43− cells were isolated by FACS and plated in MPP differentiation and iNK differentiation cultures as provided herein.
# hiPSCs [2] = experiment: hiPSC monolayer hematopoietic differentiation (iCD34 platform), CD34+ HE population at D10 by flow cytometry
# Description: The iCD34 platform is an optimized system for hematopoietic lineage cells differentiation. To initiate differentiation towards the hematopoietic lineage, hiPSCs were seeded as a monolayer on Day (D) 0 in the maintenance medium and allowed to adhere and expand for about 24 hours. At this point, the maintenance medium was removed and replaced with base medium without maintenance factors at D1. Hematopoietic differentiation was initiated at around D2 by switching the culture medium to iCD34−A (see FIG. 1). […] The monolayers were maintained until around D5-D6 at which point they were dissociated into single cells and seeded as a low density monolayer in iCD34−C medium until differentiation around D10. Low oxygen tension (2-10% O2) was maintained from the onset of hematopoietic differentiation around D2 up until around D10 of differentiation.
# During the culture process, the directed differentiation towards the hematopoietic lineage was monitored by the dissociation of the monolayers into single cells and analysis for the surface marker expression of CD34, and optionally, CD43, CD45, CXCR4, CD73 and/or CD93 (FIG. 4A). At around D8 of differentiation, the appearance of a cell population representing HE was observed by the cell surface expression signature CD34+. CD43−CXCR4−CD73− was also observed in the CD34+ cells. The CD34+ population was maintained until around D10 (FIG. 4A). At D10, which time point can be shortened to about D9 or extended until about D12, the cells were dissociated into single cells and the CD34+ HE population was sorted by FACS using a BD FACS Aria for further analysis and functional assessment.
# To optimize the efficient generation of HE from hiPSCs after around 10 days of differentiation several parameters were examined. The optimal plating density of the monolayers at D0 of differentiation was assessed by plating increasing numbers of hiPSCs from 7.5×10^4/well to 1.5×10^5/well on Matrigel™-coated 6 well culture dishes and then analyzing the generation of the CD34+ HE population at about D10. […] Despite this decrease, the highest conversion rate of hiPSCs to HE after 10 days of monolayer differentiation was at the highest plating density tested at 1.5×10^5/well (FIG. 4C).
# The effect of the concentration of BMP4 modulation during the initial stages of hematopoietic differentiation on the generation of HE was assessed by treating the cultures with increasing concentrations of BMP4 ranging from 0 ng/ml to 30 ng/ml from about D2 to about D6 of differentiation. The generation of HE at D10 was assessed by the detection of the CD34+ HE population.
# The Wnt pathway activator CHIR99021 is responsible for the induction of the definitive hematopoietic program from hiPSCs. The effect of the modulation of CHIR during the induction phase of the hematopoietic differentiation protocol was assessed by treating the cultures with increasing concentrations of CHIR from about D3.75 to about D6.
# hiPSCs [3] = experiment: WNT signaling modulation from day 6 of differentiation, CD34+CD43-CD93- HE analyzed at Day 10
# Description: To optimize the efficient generation of definitive HE from hiPSCs after 10 days of directed differentiation, the effect of modulation of the WNT signaling pathway was examined. At day 6 of differentiation, cell cultures were differentiated in the presence of the GSK3 inhibitor CHIR99021, a Wnt agonist, or IWP2, a WNT inhibitor (FIG. 29A). The generation of CD34+CD43−CD93− HE was analyzed at Day 10.
# Day 10 CD34+CD43- cells [4] = experiment: MPP differentiation of WNT modulated HE
# Description: Approximately 30,000 CD34+ HE cells were plated as a monolayer in iMPP-A media and further cultured for 6-8 days. FIG. 6A illustrates the phenotypic alterations in the monolayer cultures with the emergence of round hematopoietic cells and flow cytometric staining identifies the presence of CD45+ over the 6-8 day culture period.
# as §1
# [5] = tested on: umbilical cord blood CD34+ cells; experiment: Stromal-free NK differentiation on plate-bound DLL4 protein, cord blood cells; conditions: versus stromal-based and stromal-free control cultures
# Description: Specific to NK cells, enriched umbilical cord blood CD34+ cells were plated in iNK-A2 serum-free differentiation media containing SCF, Flt3L, TPO, IL3, IL15 and IL7 in culture plates containing DLL4 protein or control protein. After 5 days the iNK-B2 medium was maintained to complete NK cell differentiation. After approximately 10-15 days of culture, the culture was assessed for the generation of NK cell progenitors and the absence of myeloid cells. CD56, CD7 and CD161 are the first cell surface markers to be expressed during NK cell development. CD11b and CD14 are cell surface markers expressed on myeloid cell subsets. FIG. 18 depicts stromal-free differentiation of umbilical cord blood CD34+ cells towards NK cells. […] Early NK lineage markers identify the presence of ipro-NK cells as defined by CD56, CD7 and CD161 and the absence of myeloid markers CD11b and CD14.
# [6] = tested on: Day 10 CD34+ iHE sorted cells; experiment: Stromal-free NK differentiation on plate-bound DLL4 protein, hiPSC-derived cells
# Description: Then the hiPSC-derived CD34+ cells were differentiated towards the NK cell lineage for 20 days and then placed in suspension culture for further maturation. […] After 5 days iNK-B2 media was maintained to complete NK cell differentiation. Markers for identifying the presence of mature NK cells include CD56, CD122, NKp30, CD94, CD16, NKG2D and KIR.
# [7] = CHIR from about D3.75 to about D6
molecule,measurement,setting,value
Cc1c[nH]c(-c2cnc(NCCNc3ccc(C#N)cn3)nc2-c2ccc(Cl)cc2Cl)n1 [CHIR99021],production of NK progenitor cells from the modulated HE (FIG. 30B legend),Day 10 CD34+CD43- cells [1],increased the production of NK progenitor cells
same,increased presence of CD56+CD7+ NK progenitor cells (lymphoid capacity),Day 10 CD34+CD43- cells [1]; after 20 days of iNK differentiation,5-6 fold
same,effect of increasing concentration on percentage of the HE subpopulation,hiPSCs [2]; [7],decreases the percentage of the HE subpopulation
same,effect of increasing concentration on total percentage of CD34+ cells,hiPSCs [2]; [7],increases the total percentage of CD34+ cells
same,optimal concentration of CHIR99021 for HE subpopulation,hiPSCs [2]; [7],approximately 1 uM
same,number and percentage of phenotypic CD34+CD43-CD93- HE (FIG. 29B legend),hiPSCs [3],increased the number and the percentage
same,"HE cellularity (total HE cell number, HE proliferation)",hiPSCs [3]; treated from day 6,improved HE cellularity
same,percentage of CD34+CD43- cells at Day 10,hiPSCs [3]; treated from day 6,slight decrease
same,increase in number and percentage of phenotypic CD34+CD43-CD93- HE,"hiPSCs [3]; treated from day 6, Day 10",2-3 fold
same,production of CD45+ cells from the modulated HE (FIG. 30A legend),Day 10 CD34+CD43- cells [4],increased the production of CD45+ cells
same,increased presence of CD45+ cells (hematopoietic potency),Day 10 CD34+CD43- cells [4]; after 7 days of MPP differentiation,5-6 fold
Cc1ccc2nc(NC(=O)CSc3nc4c(c(=O)n3-c3ccccc3)SCC4)sc2c1 [IWP2],HE cell numbers at Day 10,hiPSCs [3]; treated from day 6,overall decrease in HE cell numbers
same,percentage of phenotypic HE at Day 10,hiPSCs [3]; treated from day 6,did not affect the percentage of phenotypic HE
"DLL4: plate-bound DLL4 protein, Notch activator",differentiation of CD56+CD7+CD161+ NK cell progenitors,[5],supports a more rapid and efficient differentiation
same,differentiation of NK cell progenitors versus myeloid cells,[6],supports the differentiation of CD56+CD7+CD161+ NK cell progenitors but not CD11b+ myeloid cells
B1,optimal concentration of BMP4 for HE population at D10,hiPSCs [2]; BMP4 0 ng/ml to 30 ng/ml from about D2 to about D6,about 3 ng/mL
same,effect of increasing BMP4 concentration on HE population at D10,"hiPSCs [2]; BMP4 from D2 to D6, below a threshold concentration",increases the HE population at D10

# From patent publication US10858628B2, “Methods and compositions for inducing hematopoietic cell differentiation” (Fate Therapeutics, Inc., priority 2015, dated 2020)
